From US20070225278A1, “Methods for treating cognitive and other disorders” (priority 2006, published 2007)

What was measured:
[1] = tested on: male Sprague-Dawley rats; format: in vivo, rat; settings: minimal dose at which sexual dysfunction occurs, male rats
Source text: In summary, male rats were allowed access to sexually receptive females during a single overnight mating session and then administered antidepressants with varying degrees of clinically reported sexual deficits. […] Animals
Intact male Sprague-Dawley rats (Charles River Laboratories) arrived at 7 weeks of age and were allowed to habituate for one week prior to sexual experience or behavioral testing. Rats were group housed in same-sex colony rooms with food and water provided ad libitum. All animals were maintained under a 12:12 light-dark cycle (lights on at 6:00 am) with behavioral experiments performed during the light hours beginning at noon.
Ovariectomized female Long-Evans rats (Charles River Laboratories) were individually housed and brought into behavioral estrus weekly by subcutaneous injection of 25 ug 17-B estradiol benzoate in 0.1 ml corn oil 48 hours prior to testing, followed by subcutaneous administration of 2.5 mg progesterone in 0.1 ml corn oil 4 to 6 hours before testing.
For subjects assigned into the sexually experienced group, the following procedures were performed. Individual male rats were placed into the home cage of a a sexually receptive female for overnight mating sessions. The cage was a Plexiglas cage measuring 10×12 inches, with food and water ad libitum. Mating pairs were randomly assigned. […] Following overnight mating sessions, males and females were separated from each other and placed back into same-sex colony rooms where they were group-housed until the time of behavioral testing.
To determine the effects of female stimuli on non-contact penile erections, sexually receptive females were brought into the testing room 30 minutes prior to the start of behavioral testing in order to provide female visual, olfactory, and auditory stimuli for males. The testing arena for observing non-contact penile erections in male rats consisted of an empty rat size Plexiglas cage (11×10 inches) containing no bedding, with an aerated plastic lid and a total ceiling height of 12 inches. […] A penile erection consisted of observation of the male rat in a hunched position grasping the penis with the forepaws and followed by a series of pelvic thrusts. The number of penile erections were quantified over a 30 minute observation session.
Following sexual experience (as described above), male subjects (n=8 per group) were administered either 10 mg/kg/day fluoxetine or saline vehicle for 14 days. On the 14th day, fluoxetine treatment was co-administered with either saline or apomorphine (0.1-0.3 mg/kg, sc) or yohimbine (0.1-0.3 mg/kg, sc) or sildenafil (0.1-0.3 mg/kg, sc) in separate experiments. Non-contact penile erections were evaluated in 30 minute test sessions in the presence of sexually receptive female rats.
Fluoxetine HCl (Tocris), desipramine (Sigma, St. Louis, Mo.) and bupropion HCl (Toronto Research Chemicals, Canada) were dissolved in 0.9% sterile saline vehicle and injected intraperitoneally (i.p.) once daily. On the day of behavioral testing, antidepressants were administered intraperitoneally (i.p.) as one hour pretreatments. For reversal experiments, apomorphine (Sigma, St. Louis, Mo.), yohimbine (Sigma, St. Louis, Mo.) or sildenafil (Toronto Research Chemicals, Canada) were used. Apomorphine was dissolved in 0.9% sterile saline vehicle and injected subcutaneously (s.c.). Yohimbine was dissolved in dH2O facilitated with 1N HCl, followed by addition of 1N NaOH for titration (pH=7) and administered intraperitoneally (i.p.). Sildenafil was dissolved in 0.9% sterile saline vehicle and administered intraperitoneally (i.p.). With the exception of fluoxetine which was administered in a dose volume of 2 ml/kg, all other test compounds were administered in a dose volume of 1 ml/kg. On the day of behavioral testing, both fluoxetine and the reversal agent (apomorphine, yohimbine, or sildenafil) were co-administered as 0 minute pretreatments. […]

[2] = tested on: rats; assay: 5-choice serial reaction time test (5CSRT), variable ITI; format: in vivo, rat; settings: 1 mg/kg ip, 10 and 7 sec ITI, p<0.05 vs vehicle
Source text: The 5-choice serial reaction time task is a behavioral assay that is used to measure attention and impulsivity in rats. Rats are trained to respond correctly to aperture illuminations reinforced to food rewards until they reach >70% correct responses during a 30-minute baseline session. Once animals reach baseline criteria, a variable stimulus duration (SD) and variable inter-trial interval (ITI) test can be used to manipulate normal baseline performance. […] When the ITI is increased from that used during baseline training impulsivity, as measured by premature responses, is increased. Compounds and manipulations that improve attention will improve performance and those that decrease impulsivity will decrease premature responses.
5CSRT: The test apparatus consisted of ten 25×25 cm aluminum chambers (Med Associates Inc., St. Albans, Vt.). The rear wall of each chamber was concavely curved, containing five accessible apertures, each 2.5 cm square, and 4 cm deep positioned 2 cm above floor level. […]
5CSRT Training: Prior to drug treatments, rats were trained to discriminate a brief visual stimulus light presented randomly in one of the five spatial locations. […] A single nose-poke in this opening during the period of illumination (signal period), or during the 5 second afterwards (limited hold) was reinforced by the delivery of a food pellet and a correct response was recorded. […]

`c1cc2c3c(c1)[C@H]1CCC[C@H]1N3CCNC2` [Compound 1] was tested, and the “Sexual dysfunction (MED mg/kg)” value [1] was “≧10 mg/kg” and the premature responding [2] was “statistically significant decrease”.
